Assay results reported in PubChem BioAssay AID2060610 (Molecular Pharmacology Branch, DTP, NCI, 2025).

Tested on: 616215-338-R-J1-PDC complex spheroids, viability % test/control
Assay: Anticancer human tumor 616215-338-R-J1-PDC patient-derived colon adenocarcinoma cell line growth inhibition [CLK]
Details: for IC50: curve of first compound; for viability, T/C: stronger effect = lower value
How it was run: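 Patient-derived tumor cells grown as complex spheroids with HUVEC endothelial cells and mesenchymal stem cells, treated with drug combinations. Concentrations descend in half-log steps from near clinical Cmax, or from 10 microM if Cmax unknown.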

[1] = second compound 0.0316 µM, first compound 0.0316 µM
[2] = second compound 0.0316 µM, first compound 0.1 µM
[3] = second compound 0.0316 µM, first compound 0.316 µM
[4] = second compound 0.0316 µM, first compound 1 µM
[5] = second compound 0.0316 µM, first compound 3.16 µM
[6] = second compound 0.0316 µM, first compound 10 µM
[7] = second compound 0.1 µM, first compound 0.0316 µM
[8] = second compound 0.1 µM, first compound 0.1 µM
[9] = second compound 0.1 µM, first compound 0.316 µM
[10] = second compound 0.1 µM, first compound 1 µM
[11] = second compound 0.1 µM, first compound 3.16 µM
[12] = second compound 0.1 µM, first compound 10 µM
[13] = second compound 0.316 µM, first compound 0.0316 µM
[14] = second compound 0.316 µM, first compound 0.1 µM
[15] = second compound 0.316 µM, first compound 0.316 µM
[16] = second compound 0.316 µM, first compound 1 µM
[17] = second compound 0.316 µM, first compound 3.16 µM
[18] = second compound 0.316 µM, first compound 10 µM
[19] = second compound 1 µM, first compound 0.0316 µM
[20] = second compound 1 µM, first compound 0.1 µM
[21] = second compound 1 µM, first compound 0.316 µM
[22] = second compound 1 µM, first compound 1 µM
[23] = second compound 1 µM, first compound 3.16 µM
[24] = second compound 1 µM, first compound 10 µM
[25] = second compound 3.16 µM, first compound 0.0316 µM
[26] = second compound 3.16 µM, first compound 0.1 µM
[27] = second compound 3.16 µM, first compound 0.316 µM
[28] = second compound 3.16 µM, first compound 1 µM
[29] = second compound 3.16 µM, first compound 3.16 µM
[30] = second compound 3.16 µM, first compound 10 µM
[31] = second compound 10 µM, first compound 0.0316 µM
[32] = second compound 10 µM, first compound 0.1 µM
[33] = second compound 10 µM, first compound 0.316 µM
[34] = second compound 10 µM, first compound 1 µM
[35] = second compound 10 µM, first compound 3.16 µM
[36] = second compound 10 µM, first compound 10 µM
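Note: spheroids exposed to agents for 7 days.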
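Throughout, for viability, T/C: 100% = DMSO vehicle wells.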

## COc1cccc2c1C(=O)c1c(O)c3c(c(O)c1C2=O)CC(O)(C(=O)CO)CC3OC1CC(N)C(O)C(C)O1 (centres undefined) + CN1CCN(c2cc(C(=O)Nc3cc4cc(-c5cnn(C)c5)ccc4cn3)ccn2)CC1
Second compound 0.0316 µM
  IC50: 211 nM
Second compound 0.1 µM
  IC50: 142 nM
Second compound 0.316 µM
  IC50: < 31.6 nM
Second compound 1 µM
  IC50: < 31.6 nM
Second compound 3.16 µM
  IC50: < 31.6 nM
Second compound 10 µM
  IC50: < 31.6 nM
[1]
  viability, T/C: 82.5%
[2]
  viability, T/C: 42.5%
[3]
  viability, T/C: 51.5%
[4]
  viability, T/C: 41.8%
[5]
  viability, T/C: 0.43%
[6]
  viability, T/C: 0.14%
[7]
  viability, T/C: 71%
[8]
  viability, T/C: 44.8%
[9]
  viability, T/C: 42.5%
[10]
  viability, T/C: 37.9%
[11]
  viability, T/C: 0.52%
[12]
  viability, T/C: 0.13%
[13]
  viability, T/C: 27.6%
[14]
  viability, T/C: 32.9%
[15]
  viability, T/C: 21.8%
[16]
  viability, T/C: 2.19%
[17]
  viability, T/C: 0.13%
[18]
  viability, T/C: 0.13%
[19]
  viability, T/C: 0.14%
[20]
  viability, T/C: 0.17%
[21]
  viability, T/C: 0.16%
[22]
  viability, T/C: 0.1%
[23]
  viability, T/C: 0.09%
[24]
  viability, T/C: 0.11%
[25]
  viability, T/C: 0.09%
[26]
  viability, T/C: 0.12%
[27]
  viability, T/C: 0.11%
[28]
  viability, T/C: 0.09%
[29]
  viability, T/C: 0.12%
[30]
  viability, T/C: 0.71%
[31]
  viability, T/C: 0.1%
[32]
  viability, T/C: 0.12%
[33]
  viability, T/C: 0.46%
[34]
  viability, T/C: 0.13%
[35]
  viability, T/C: 0.16%
[36]
  viability, T/C: 0.17%

## Nc1ccn(C2OC(CO)C(O)C2(F)F)c(=O)n1 (centres undefined) + CNC(=O)c1ccc(Nc2nc(OC3CCCC3)c3c(-c4ccc5nc(C)oc5c4)c[nH]c3n2)c(OC)c1
Second compound 0.0316 µM
  IC50: < 31.6 nM
Second compound 0.1 µM
  IC50: < 31.6 nM
Second compound 0.316 µM
  IC50: < 31.6 nM
Second compound 1 µM
  IC50: < 31.6 nM
Second compound 3.16 µM
  IC50: < 31.6 nM
Second compound 10 µM
  IC50: < 31.6 nM
[1]
  viability, T/C: 21.9%
[2]
  viability, T/C: 14.5%
[3]
  viability, T/C: 18.9%
[4]
  viability, T/C: 14.9%
[5]
  viability, T/C: 20.3%
[6]
  viability, T/C: 18.9%
[7]
  viability, T/C: 18.2%
[8]
  viability, T/C: 18.4%
[9]
  viability, T/C: 16.8%
[10]
  viability, T/C: 14.6%
[11]
  viability, T/C: 21%
[12]
  viability, T/C: 17.4%
[13]
  viability, T/C: 22.1%
[14]
  viability, T/C: 17.2%
[15]
  viability, T/C: 18.1%
[16]
  viability, T/C: 17.1%
[17]
  viability, T/C: 18.7%
[18]
  viability, T/C: 20.2%
[19]
  viability, T/C: 18.7%
[20]
  viability, T/C: 15.9%
[21]
  viability, T/C: 16.9%
[22]
  viability, T/C: 17.8%
[23]
  viability, T/C: 16.6%
[24]
  viability, T/C: 15.6%
[25]
  viability, T/C: 19.1%
[26]
  viability, T/C: 15.8%
[27]
  viability, T/C: 18.6%
[28]
  viability, T/C: 18.1%
[29]
  viability, T/C: 21.9%
[30]
  viability, T/C: 18.3%
[31]
  viability, T/C: 21.8%
[32]
  viability, T/C: 15%
[33]
  viability, T/C: 18.6%
[34]
  viability, T/C: 18.2%
[35]
  viability, T/C: 23.1%
[36]
  viability, T/C: 17.9%
